Results as given in BigSolDB 2.1.

Oc1ccccc1C=Nc1c(F)cccc1F
solubility (mole fraction)
Conditions	273.15 K	278.15 K	283.15 K	288.15 K	293.15 K	298.15 K	303.15 K
in 1,2-dichloroethane	0.105	0.122	0.142	0.164	0.193	0.234	0.277
in THF	0.161	0.181	0.2	0.23	0.258	0.293	0.338
in acetonitrile	0.0134	0.0191	0.0272	0.0389	0.0547	0.0768	0.106
in chloroform	0.138	0.154	0.177	0.203	0.232	0.27	0.313
in dichloromethane	0.122	0.139	0.161	0.185	0.218	0.252	0.295
in ethanol	0.00496	0.00633	0.00819	0.0103	0.0128	0.0157	0.0192
in ethyl acetate	0.0896	0.104	0.124	0.146	0.173	0.204	0.248
in isopropanol	0.008	0.0095	0.0114	0.0136	0.0164	0.0195	0.0231
in methanol	0.00299	0.00392	0.00512	0.00667	0.00873	0.0111	0.0141
in n-propanol	0.00636	0.00779	0.00958	0.0118	0.0146	0.0177	0.0212
in toluene	0.0871	0.105	0.126	0.149	0.176	0.213	0.251
